From patent US20050014811A1, “Substituted benzimidazole compounds and their use for the treatment of cancer” (Aventis Pharma S.A., priority 2001, published 2005)

Key:
[1] = target: CDK4/CyclinD1 (Homo sapiens, UniProt P11802); assay: CDK4/CyclinD1 Flashplate assay, 96-well format, biotinylated-Rb peptide substrate; type: biochemical
Method in brief: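 Biotinylated Rb peptide bound to streptavidin Flashplate; CDK4/CyclinD1 (70 ng/well) preincubated 30 min on ice with compound at 10, 3, 1, 0.3 and 0.1 μM final. Reaction with 1 μM cold ATP plus 33P-ATP for 45 min at RT; incorporated 33P counted, duplicates.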

[2] = target: CDK2/CyclinE (Homo sapiens, UniProt P24941); assay: CDK2/CyclinE Flashplate assay, 96-well format, biotinylated-Rb peptide substrate; type: biochemical
Method in brief: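 Biotinylated Rb peptide was captured on streptavidin Flashplates, and CDK2/CyclinE (200 ng/well) was preincubated 30 min on ice with inhibitor at 10, 3, 1, 0.3 or 0.1 μM final. Reactions ran 45 min at RT with 1 μM ATP plus 1 μCi ^33P-ATP. After washing, incorporated ^33P was counted, in duplicate.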

Sequence of CDK4/CyclinD1 (P11802 whole entry, species assumed): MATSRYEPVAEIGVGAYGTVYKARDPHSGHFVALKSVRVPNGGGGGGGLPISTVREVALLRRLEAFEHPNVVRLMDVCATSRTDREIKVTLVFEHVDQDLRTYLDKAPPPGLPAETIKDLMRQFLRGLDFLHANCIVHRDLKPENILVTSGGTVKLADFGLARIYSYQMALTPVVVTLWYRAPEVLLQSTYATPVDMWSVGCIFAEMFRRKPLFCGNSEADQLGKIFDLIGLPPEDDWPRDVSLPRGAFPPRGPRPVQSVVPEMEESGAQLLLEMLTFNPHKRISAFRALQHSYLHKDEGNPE
Sequence of CDK4/CyclinD1 (P24385 whole entry partner, species assumed): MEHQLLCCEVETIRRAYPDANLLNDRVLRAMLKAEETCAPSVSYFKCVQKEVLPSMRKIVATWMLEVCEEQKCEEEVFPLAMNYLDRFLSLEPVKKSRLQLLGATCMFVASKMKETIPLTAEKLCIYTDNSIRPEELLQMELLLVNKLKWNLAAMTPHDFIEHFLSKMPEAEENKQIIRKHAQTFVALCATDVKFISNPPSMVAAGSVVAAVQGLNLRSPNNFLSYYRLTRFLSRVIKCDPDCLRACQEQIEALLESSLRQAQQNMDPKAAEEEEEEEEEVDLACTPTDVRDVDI

## O=C(Nc1ccc(F)cc1)Nc1nc2cc(OS(=O)(=O)c3ccc(-n4ccnc4)cc3)ccc2[nH]1 [Example 57-f, 4-Imidazol-1-yl-benzenesulfonic acid 2-[3-(4-fluoro-phenyl)-ureido]-1H-benzoimidazol-5-yl ester]
[1]
  inhibition at 10 µM: 88%
[2]
  IC50: 500 nM

## O=C(NCc1ccccc1Cl)Nc1nc2cc(OS(=O)(=O)c3ccc(-n4ccnc4)cc3)ccc2[nH]1 [Example 57-g, 4-Imidazol-1-yl-benzenesulfonic acid 2-[3-(2-chloro-benzyl)-ureido]-1H-benzoimidazol-5-yl ester]
[1]
  inhibition at 10 µM: 52%
[2]
  IC50: 600 nM

## O=C(NCc1ccccc1F)Nc1nc2cc(OS(=O)(=O)c3ccc(-n4ccnc4)cc3)ccc2[nH]1 [Example 57-h, 4-Imidazol-1-yl-benzenesulfonic acid 2-[3-(2-fluoro-benzyl)-ureido]-1H-benzoimidazol-5-yl ester]
[1]
  IC50: 4400 nM
[2]
  IC50: 100 nM

## O=C(Nc1nc2cc(OS(=O)(=O)c3ccc(-n4ccnc4)cc3)ccc2[nH]1)N1CCC1 [Example 57-i, 4-Imidazol-1-yl-benzenesulfonic acid 2-[(azetidine-1-carbonyl)-amino]-1H-benzoimidazol-5-yl ester]
[1]
  inhibition at 10 µM: 27%
[2]
  IC50: 5200 nM

## CN1CCN(CCCNC(=O)Nc2nc3cc(OS(=O)(=O)c4ccc(-n5ccnc5)cc4)ccc3[nH]2)CC1 [Example 57-k, 4-Imidazol-1-yl-benzenesulfonic acid 2-{3-[3-(4-methyl-piperazin-1-yl)-propyl]-ureido}-1H-benzoimidazol-5-yl ester]
[1]
  inhibition at 10 µM: 49%
[2]
  IC50: 600 nM

## O=C(NCc1ccccc1)Nc1nc2cc(OS(=O)(=O)c3ccc(-n4ccnc4)cc3)ccc2[nH]1 [Example 57-l, 4-Imidazol-1-yl-benzenesulfonic acid 2-(3-benzyl-ureido)-1H-benzoimidazol-5-yl ester]
[1]
  IC50: 1000 nM
[2]
  IC50: 70 nM

## O=C(Nc1ccccc1)Nc1nc2cc(OS(=O)(=O)c3ccc(NC4CCCC4)cc3)ccc2[nH]1 [Example 58-a, 4-Cyclopentylamino-benzenesulfonic acid 2-(3-phenyl-ureido)-1H-benzoimidazol-5-yl ester]
[1]
  inhibition at 10 µM: 96%
[2]
  IC50: 380 nM

## O=C(NCCNCCO)Nc1nc2cc(OS(=O)(=O)c3ccc(NC4CCCC4)cc3)ccc2[nH]1 [Example 58-aa, 4-Cyclopentylamino-benzenesulfonic acid 2-{3-[2-(2-hydroxy-ethylamino)-ethyl]-ureido}-1H-benzoimidazol-5-yl ester]
[1]
  IC50: 340 nM
[2]
  IC50: 100 nM

## O=C(NCCCCO)Nc1nc2cc(OS(=O)(=O)c3ccc(NC4CCCC4)cc3)ccc2[nH]1 [Example 58-ab, 4-Cyclopentylamino-benzenesulfonic acid 2-[3-(4-hydroxy-butyl)-ureido]-1H-benzoimidazol-5-yl ester]
[1]
  IC50: 220 nM
[2]
  IC50: 2 nM

## O=C(NCCCN1CCCC1=O)Nc1nc2cc(OS(=O)(=O)c3ccc(NC4CCCC4)cc3)ccc2[nH]1 [Example 58-ac, 4-Cyclopentylamino-benzenesulfonic acid 2-{3-[3-(2-oxo-pyrrolidin-1-yl)-propyl]-ureido}-1H-benzoimidazol-5-yl ester]
[1]
  IC50: 170 nM
[2]
  IC50: 13 nM

## NC(=O)CCNC(=O)Nc1nc2cc(OS(=O)(=O)c3ccc(NC4CCCC4)cc3)ccc2[nH]1 [Example 58-ad, 4-Cyclopentylamino-benzenesulfonic acid 2-[3-(2-carbamoyl-ethyl)-ureido]-1H-benzoimidazol-5-yl ester]
[1]
  IC50: 130 nM
[2]
  IC50: 16 nM

## O=C(NCCOCCO)Nc1nc2cc(OS(=O)(=O)c3ccc(NC4CCCC4)cc3)ccc2[nH]1 [Example 58-af, 4-Cyclopentylamino-benzenesulfonic acid 2-{3-[2-(2-hydroxy-ethoxy)-ethyl]-ureido}-1H-benzoimidazol-5-yl ester]
[1]
  IC50: 210 nM
[2]
  IC50: 180 nM

## O=C(NCCCN1CCCC1)Nc1nc2cc(OS(=O)(=O)c3ccc(NC4CCCC4)cc3)ccc2[nH]1 [Example 58-ag, 4-Cyclopentylamino-benzenesulfonic acid 2-[3-(3-pyrrolidin-1-yl-propyl)-ureido]-1H-benzoimidazol-5-yl ester]
[1]
  IC50: 390 nM
[2]
  IC50: 40 nM

## CCN1CCCC1CNC(=O)Nc1nc2cc(OS(=O)(=O)c3ccc(NC4CCCC4)cc3)ccc2[nH]1 (stereo not drawn) [Example 58-ah, 4-Cyclopentylamino-benzenesulfonic acid 2-[3-(1-ethyl-pyrrolidin-2-ylmethyl)-ureido]-1H-benzoimidazol-5-yl ester]
[1]
  IC50: 330 nM
[2]
  IC50: 30 nM

## O=C(NCCN1CCCC1)Nc1nc2cc(OS(=O)(=O)c3ccc(NC4CCCC4)cc3)ccc2[nH]1 [Example 58-ai, 4-Cyclopentylamino-benzenesulfonic acid 2-[3-(2-pyrrolidin-1-yl-ethyl)-ureido]-1H-benzoimidazol-5-yl ester]
[1]
  IC50: 330 nM
[2]
  IC50: 150 nM

## O=C(NCCN1CCCCC1)Nc1nc2cc(OS(=O)(=O)c3ccc(NC4CCCC4)cc3)ccc2[nH]1 [Example 58-aj, 4-Cyclopentylamino-benzenesulfonic acid 2-[3-(2-piperidin-1-yl-ethyl)-ureido]-1H-benzoimidazol-5-yl ester]
[1]
  IC50: 380 nM
[2]
  IC50: 370 nM

## CC(CO)NC(=O)Nc1nc2cc(OS(=O)(=O)c3ccc(NC4CCCC4)cc3)ccc2[nH]1 (stereo not drawn) [Example 58-ak, 4-Cyclopentylamino-benzenesulfonic acid 2-[3-(2-hydroxy-1-methyl-ethyl)-ureido]-1H-benzoimidazol-5-yl ester]
[1]
  IC50: 180 nM
[2]
  IC50: 100 nM

## CC(C)NCCNC(=O)Nc1nc2cc(OS(=O)(=O)c3ccc(NC4CCCC4)cc3)ccc2[nH]1 [Example 58-al, 4-Cyclopentylamino-benzenesulfonic acid 2-[3-(2-isopropylamino-ethyl)-ureido]-1H-benzoimidazol-5-yl ester]
[1]
  IC50: 250 nM
[2]
  IC50: 150 nM

## CCN(CC)CCNC(=O)Nc1nc2cc(OS(=O)(=O)c3ccc(NC4CCCC4)cc3)ccc2[nH]1 [Example 58-am, 4-Cyclopentylamino-benzenesulfonic acid 2-[3-(2-diethylamino-ethyl)-ureido]-1H-benzoimidazol-5-yl ester]
[1]
  IC50: 240 nM
[2]
  IC50: 80 nM

## COC(=O)[C@H](CO)NC(=O)Nc1nc2cc(OS(=O)(=O)c3ccc(NC4CCCC4)cc3)ccc2[nH]1 [Example 58-an, 2-{3-[5-(4-Cyclopentylamino-benzenesulfonyloxy)-1H-benzoimidazol-2-yl]-ureido}-3S-hydroxy-propionic acid methyl ester]
[1]
  IC50: 200 nM
[2]
  IC50: 100 nM

## O=C(Nc1nc2cc(OS(=O)(=O)c3ccc(NC4CCCC4)cc3)ccc2[nH]1)NC1CCCCC1 [Example 58-b, 4-Cyclopentylamino-benzenesulfonic acid 2-(3-cyclohexyl-ureido)-1H-benzoimidazol-5-yl ester]
[1]
  inhibition at 10 µM: 70%
[2]
  IC50: 900 nM

## O=C(Nc1nc2cc(OS(=O)(=O)c3ccc(NC4CCCC4)cc3)ccc2[nH]1)NC1CCCC1 [Example 58-c, 4-Cyclopentylamino-benzenesulfonic acid 2-(3-cyclopentyl-ureido)-1H-benzoimidazol-5-yl ester]
[1]
  inhibition at 10 µM: 60%
[2]
  IC50: 600 nM

## O=C(Nc1cccc(F)c1)Nc1nc2cc(OS(=O)(=O)c3ccc(NC4CCCC4)cc3)ccc2[nH]1 [Example 58-d, 4-Cyclopentylamino-benzenesulfonic acid 2-[3-(3-fluoro-phenyl)-ureido]-1H-benzoimidazol-5-yl ester]
[1]
  inhibition at 10 µM: 84%
[2]
  IC50: 1600 nM

## O=C(NCCO)Nc1nc2cc(OS(=O)(=O)c3ccc(NC4CCCC4)cc3)ccc2[nH]1 [Example 58-e, 4-Cyclopentylamino-benzenesulfonic acid 2-[3-(2-hydroxy-ethyl)-ureido]-1H-benzoimidazol-5-yl ester]
[1]
  IC50: 100 nM
[2]
  IC50: 40 nM

## O=C(Nc1ccc(F)cc1)Nc1nc2cc(OS(=O)(=O)c3ccc(NC4CCCC4)cc3)ccc2[nH]1 [Example 58-f, 4-Cyclopentylamino-benzenesulfonic acid 2-[3-(4-fluoro-phenyl)-ureido]-1H-benzoimidazol-5-yl ester]
[1]
  inhibition at 10 µM: 91%
[2]
  IC50: 700 nM

## O=C(NCc1ccccc1Cl)Nc1nc2cc(OS(=O)(=O)c3ccc(NC4CCCC4)cc3)ccc2[nH]1 [Example 58-g, 4-Cyclopentylamino-benzenesulfonic acid 2-[3-(2-chloro-benzyl)-ureido]-1H-benzoimidazol-5-yl ester]
[1]
  inhibition at 10 µM: 69%
[2]
  IC50: 1000 nM

## O=C(Nc1nc2cc(OS(=O)(=O)c3ccc(NC4CCCC4)cc3)ccc2[nH]1)N1CCC1 [Example 58-i, 4-Cyclopentylamino-benzenesulfonic acid 2-[(azetidine-1-carbonyl)-amino]-1H-benzoimidazol-5-yl ester]
[1]
  inhibition at 10 µM: 81%
[2]
  IC50: 300 nM

## O=C(NCc1cccnc1)Nc1nc2cc(OS(=O)(=O)c3ccc(NC4CCCC4)cc3)ccc2[nH]1 [Example 58-j, 4-Cyclopentylamino-benzenesulfonic acid 2-(3-pyridin-3-ylmethyl-ureido)-1H-benzoimidazol-5-yl ester]
[1]
  IC50: 500 nM
[2]
  IC50: 9 nM

## CN1CCN(CCCNC(=O)Nc2nc3cc(OS(=O)(=O)c4ccc(NC5CCCC5)cc4)ccc3[nH]2)CC1 [Example 58-k, 4-Cyclopentylamino-benzenesulfonic acid 2-{3-[3-(4-methyl-piperazin-1-yl)-propyl]-ureido}-1H-benzoimidazol-5-yl ester]
[1]
  IC50: 500 nM
[2]
  IC50: 40 nM

## O=C(NCc1ccccc1)Nc1nc2cc(OS(=O)(=O)c3ccc(NC4CCCC4)cc3)ccc2[nH]1 [Example 58-l, 4-Cyclopentylamino-benzenesulfonic acid 2-(3-benzyl-ureido)-1H-benzoimidazol-5-yl ester]
[1]
  IC50: 1000 nM
[2]
  IC50: 30 nM
